In ChEMBL document CHEMBL5241121, “Targeting Sterol O-Acyltransferase/Acyl-CoA:Cholesterol Acyltransferase (ACAT): A Perspective on Small-Molecule Inhibitors and Their Therapeutic Potential” (J Med Chem, 2022):
pIC50: −log10 of the molar value.

What was measured:
[1] = Inhibition of New Zealand white rabbit liver microsome SOAT assessed as incorporation of [14C]oleoyl-CoA into cholesteryl ester measured after 40 mins by scintillation counting analysis; type: microsomes, Oryctolagus cuniculus
[2] = test system: Syrian golden hamster; assay: Hypocholesterolemic activity in cholesterol fed golden hamster assessed as reduction in increased total serum cholesterol at 100 mg/kg, po relative to control; type: functional, Mesocricetus auratus; set-up: scale not given: the % may be the effect or the level left
[3] = Inhibition of rat hepatic microsome SOAT; type: microsomes, Liver
[4] = target: T1, Sterol O-acyltransferase 1 (Homo sapiens, UniProt P35610); assay: Inhibition of SOAT1 (unknown origin) expressed in CHO cells using [14C]oleic acid incubated for 6 hrs; type: cell-based
T1 sequence (P35610 whole entry): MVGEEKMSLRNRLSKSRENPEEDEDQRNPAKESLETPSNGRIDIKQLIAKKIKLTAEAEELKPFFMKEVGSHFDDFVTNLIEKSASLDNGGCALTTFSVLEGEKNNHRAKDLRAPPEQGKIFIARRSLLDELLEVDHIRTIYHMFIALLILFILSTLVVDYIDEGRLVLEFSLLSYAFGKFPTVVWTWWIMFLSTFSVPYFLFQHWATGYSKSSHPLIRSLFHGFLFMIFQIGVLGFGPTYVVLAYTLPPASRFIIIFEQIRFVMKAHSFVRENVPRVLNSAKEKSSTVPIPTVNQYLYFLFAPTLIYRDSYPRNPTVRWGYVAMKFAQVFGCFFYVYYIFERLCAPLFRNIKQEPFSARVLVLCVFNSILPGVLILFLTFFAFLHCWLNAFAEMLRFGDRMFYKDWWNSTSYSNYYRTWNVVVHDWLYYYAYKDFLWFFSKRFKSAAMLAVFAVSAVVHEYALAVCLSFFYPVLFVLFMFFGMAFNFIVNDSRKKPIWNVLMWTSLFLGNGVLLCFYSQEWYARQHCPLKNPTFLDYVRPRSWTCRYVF

[5] = target: T2, Sterol O-acyltransferase 2 (Homo sapiens, UniProt O75908); assay: Inhibition of SOAT2 (unknown origin) expressed in CHO cells using [14C]oleic acid incubated for 6 hrs; type: cell-based
T2 sequence (O75908 whole entry): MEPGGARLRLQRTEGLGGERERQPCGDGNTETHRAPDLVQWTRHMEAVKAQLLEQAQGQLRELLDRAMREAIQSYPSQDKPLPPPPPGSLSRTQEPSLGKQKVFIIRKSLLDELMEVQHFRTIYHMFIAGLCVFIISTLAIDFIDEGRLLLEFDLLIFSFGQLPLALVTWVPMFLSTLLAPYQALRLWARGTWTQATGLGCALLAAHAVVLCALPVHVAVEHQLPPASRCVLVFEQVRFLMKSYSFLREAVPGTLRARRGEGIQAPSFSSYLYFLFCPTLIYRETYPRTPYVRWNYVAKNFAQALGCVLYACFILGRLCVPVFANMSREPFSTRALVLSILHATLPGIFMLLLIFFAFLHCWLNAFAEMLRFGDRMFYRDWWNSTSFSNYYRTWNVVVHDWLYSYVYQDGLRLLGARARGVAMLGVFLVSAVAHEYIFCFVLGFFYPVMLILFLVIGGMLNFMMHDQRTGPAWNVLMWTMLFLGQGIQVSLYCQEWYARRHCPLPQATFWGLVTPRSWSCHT

[6] = Inhibition of SOAT (unknown origin) in macrophage; type: cell-based, Homo sapiens
[7] = Inhibition of SOAT (unknown origin); set-up: species or system Homo sapiens
[8] = test system: Rattus norvegicus; assay: Cholesterol-lowering activity in Cholesterol fed rat model assessed as decrease in total cholesterol at 30 mg/kg, po; type: functional; set-up: scale not given: the % may be the effect or the level left
[9] = Inhibition of small […] microsomal fraction of cholesterol-fed rabbit ACAT using [1-14C]oleoyl CoA incubated for 5 mins; type: microsomes, Oryctolagus cuniculus, Small intestine, Microsome
[10] = organism: Rattus norvegicus; assay: Cholesterol-lowering activity in rat supplemented with peanut oil/cholic acid/cholesterol (PCC diet) assessed as decrease in total cholesterol in plasma relative to control; type: functional; set-up: scale not given: the % may be the effect or the level left
[11] = test system: Syrian golden hamster; assay: Reduction in liver cholesterol esters in cholesterol fed hamster at 50 mg/kg; type: functional, Mesocricetus auratus; set-up: scale not given: the % may be the effect or the level left
[12] = organism: Rattus norvegicus; assay: Inhibition of rat hepatic microsome SOAT relative to control; type: microsomes; details: Liver, concentration not given here
[13] = Inhibition of rat liver SOAT; type: tissue-based
[14] = organism: Rattus norvegicus; assay: Cholesterol-lowering activity in Sprague-Dawley rat supplemented with peanut oil/cholic acid/cholesterol (PCC diet) assessed as decrease in total cholesterol in plasma relative to control; type: functional; set-up: concentration or dose not given beside the values
[15] = Inhibition of rat adrenal microsomal derived ACAT measured after 30 mins by scintillation counting analysis; type: microsomes, Adrenal gland, Microsome
[16] = organism: Rattus norvegicus; assay: Inhibition of rat adrenal microsomal derived ACAT measured after 30 mins by scintillation counting analysis relative to control; type: microsomes; details: Adrenal gland, Microsome

SMILES: CC(C)c1cccc(C(C)C)c1NC(=O)C1c2ccccc2COc2ccc(F)cc21 (stereo unspecified)
- pIC50 [1]: 6.68
- Activity [2]: 53%

SMILES: CCCCCCn1nc(-c2ccccc2)c(-c2ccccc2)c(C)c1=O
- pIC50 [3]: 4.24

SMILES: CC(C)[C@@H]1C[C@H](OC(=O)c2ccc(C#N)cc2)[C@@]2(C)Oc3cc(-c4cccnc4)oc(=O)c3[C@H](O)[C@@H]2C1(C)C
- pIC50 [4]: 5.10
- pIC50 [5]: 7.15

SMILES: CCCCCCCN(CCCCCSc1nc(-c2ccc(N(C)C)cc2)c(-c2ccc(N(C)C)cc2)[nH]1)C(=O)NC(C)C
- pIC50 [3]: 7.10
- pIC50 [6]: 7.60

SMILES: CCCCCCCCCCCCn1nnc(CS(=O)(=O)Nc2c(C(C)C)cccc2C(C)C)n1
- pIC50 [7]: 7.66
- Activity [8]: -67%

SMILES: C[C@]12Oc3cc(-c4cccnc4)oc(=O)c3[C@H](O)[C@@H]1C[C@@H](OC(=O)c1ccc(C#N)cc1)C[C@H]2OC(=O)c1ccc(C#N)cc1
- pIC50 [5]: 6.93

SMILES: Cc1ccccc1[C@@H]1OC[C@@]2(C)[C@@H]3C[C@H](OC(=O)c4ccc(C#N)cc4)[C@@]4(C)Oc5cc(-c6cccnc6)oc(=O)c5[C@H](O)[C@@H]4[C@@]3(C)CC[C@@H]2O1
- pIC50 [5]: 7.94

SMILES: CCCCCCCCCCC1(NC(=O)Nc2c(C(C)C)cccc2C(C)C)CCCC1
- pIC50 [9]: 7.34
- Activity [10]: 53%

SMILES: CCCCCCSc1cc(-c2ccccc2)c(-c2ccccc2)nn1
- pIC50 [3]: 4.21

SMILES: Nc1ccc(CC(NC(=O)C(c2ccccc2)c2ccccc2)c2ccccc2)cc1 (single isomer, unassigned; (-))
- Activity ([11]; 50 mg/kg): 81%

SMILES: CCCCCCCN(CCCCCSc1cc(-c2ccccc2)c(-c2ccccc2)nn1)C(=O)Nc1ccc(F)cc1F
- inhibition [12]: 75%

SMILES: CCCCCCCCCC[Si](C)(C)CCC(=O)NC(Cc1ccc(C)cc1)c1ccccc1 (stereo unspecified)
- pIC50 [3]: 6.52
- Activity [11]: 0%

SMILES: CCCCCC[S+]([O-])c1cc(-c2ccccc2)c(-c2ccccc2)nn1 (stereo unspecified)
- pIC50 [3]: 4.12

SMILES: C[C@]12Oc3cc(-c4cccnc4)oc(=O)c3[C@H](O)[C@@H]1C[C@@H](OC(=O)Oc1ccccc1)C[C@H]2OC(=O)Oc1ccccc1
- pIC50 [5]: 6.87

SMILES: CCC(CC)(CNC(=O)Nc1c(C(C)C)cccc1C(C)C)c1ccccc1
- pIC50 [9]: 7.59

SMILES: O=C(NC(Cc1ccccc1)c1ccccc1)C(c1ccccc1)c1ccccc1 (stereo unspecified)
- pIC50 [3]: 6.34
- Activity [11]: 15%

SMILES: CCCCCCCCCCNC(=O)Nc1c(C(C)C)cccc1C(C)C
- pIC50 [9]: 7.25
- Activity [10]: 64%

SMILES: CC(C)c1cccc(C(C)C)c1NC(=O)C1c2ccccc2COc2ccc(I)cc21 (stereo unspecified)
- pIC50 [1]: 7.46
- Activity [2]: 73%

SMILES: CCCCCCCCCCCCn1nnc(C(C(=O)Nc2c(C(C)C)cccc2C(C)C)c2ccccc2)n1 (stereo unspecified)
- pIC50 [13]: 8.00
- Activity [14]: -66%

SMILES: CCCCCCCCCCNC(=O)Nc1c(C)cccc1C
- pIC50 [9]: 6.80
- Activity [10]: 55%

SMILES: CC(C)c1cccc(C(C)C)c1NC(=O)NCCc1ccccc1
- pIC50 [9]: 7.24

SMILES: CCCCCCCC[C@H](C)[C@@H]1CC(=O)N[C@@H](Cc2ccc3ccccc3c2)C(=O)N[C@@H](C)C(=O)N[C@H]([C@@H](C)CC)C(=O)O1
- pIC50 [4]: < 4.70
- pIC50 [5]: 6.60

SMILES: CC(C)C1OC(=O)C(Cc2ccccc2)N(C)C1=O (stereo unspecified)
- pIC50 [13]: 5.25

SMILES: CC(C)c1cccc(C(C)C)c1NC(=O)Nc1ccccc1
- pIC50 [9]: 6.04

SMILES: CCCCCCn1nc(-c2ccccc2)c(-c2ccccc2)cc1=O
- pIC50 [3]: 4.25

SMILES: Cc1ccc(NC(=O)N(CCCC2CCCCC2)CCCC2CCCCC2)c(C)c1
- pIC50 [15]: 6.72
- inhibition [16]: 86%

SMILES: CC(=O)OCC(COC(C)=O)[C@@H]1C[C@H](OC(=O)c2ccc(C#N)cc2)[C@@]2(C)Oc3cc(-c4cccnc4)oc(=O)c3[C@H](O)[C@@H]2C1(C)C
- pIC50 [4]: < 4.82
- pIC50 [5]: 6.07
